Here are results for three molecules from patent US5081232A, “Complexes of TC99m radiopharmaceuticals” (priority 1987, dated 1992).

Where two headings read alike, the source gives them in different places.

The nature of series [1]: Animal biodistribution (in vivo, i.v. injection). The settings on record: rats; for Blood, % injected dose/organ: blood taken as 5.8% of body weight; for Muscle, % injected dose/organ: muscle taken as 43% of body weight.
Experimental: (§1) 0.1 ml Tc^99m prep was injected i.v. into a lateral tail vein of 6 anaesthetised rats.
(§2) At 2 minutes and 60 minutes post injection, 3 rats were sacrificed by decapitation, bled from the neck and dissected. The following organs were removed at dissection: kidney, bladder(+urine), lung, liver, spleen, stomach, small intestine, large intestine, brain (weighed), heart (weighed), thyroid, and samples of blood (weighed) and muscle (weighed, the residual carcass and the tail (injection site). Subsequently samples were counted in an automatic twin crystal gamma counter.
(§3) Percentage biodistribution of injected material was calculated (after correction for background) for all organs using the formula: [formula]
(§4) Since only samples of muscle and blood were taken, the percentage in these tissues was calculated assuming blood and muscle to represent 5.8 and 43% of total animal weight respectively using the formula: [formula] where CF= 0.058 for blood
For series [2] the following is noted: rat, in vivo, iv.
Experimental: as §1, §2, §3, §4

Turning to `O=[N][Tc+][Cl].[C-]#[N+]C(C)(C)C.[C-]#[N+]C(C)(C)C.[C-]#[N+]C(C)(C)C.[C-]#[N+]C(C)(C)C` [[^99 Tc(NO)Cl(t-BuCN)4]^+], in series [1] (2 min p.i.), the “Brain, % injected dose/organ” value is given as 0.04 % injected dose/organ; the “Heart, % injected dose/organ” value is 1.09 % injected dose/organ; the “Heart/Blood Counts/Gram ratio” value was 6.19; the “Heart/Liver Counts/Gram ratio” value is recorded as 2.58. For the same molecule, in series [1] (2 min p.i.), the “Heart/Lung Counts/Gram ratio” value amounted to 3.34; the “Kidney + Urine, % injected dose/organ” value was 6.86 % injected dose/organ; the “Liver, % injected dose/organ” value was determined as 5.82 % injected dose/organ; the “Lung, % injected dose/organ” value is 0.64 % injected dose/organ. Further, in series [1] (2 min p.i.), the “Blood, % injected dose/organ” value was found to be 0.40 % injected dose/organ and the “Muscle, % injected dose/organ” value is listed as 21.45 % injected dose/organ. Moreover, in series [1] (60 min p.i.), the “Brain, % injected dose/organ” value came out at 0.04 % injected dose/organ; the “Heart, % injected dose/organ” value is on record as 1.37 % injected dose/organ; the “Heart/Blood Counts/Gram ratio” value is recorded as 8.98; the “Heart/Liver Counts/Gram ratio” value is 2.97. Moreover, in series [1] (60 min p.i.), the “Heart/Lung Counts/Gram ratio” value is 26.02; the “Kidney + Urine, % injected dose/organ” value was found to be 8.15 % injected dose/organ; the “Liver, % injected dose/organ” value was 5.89 % injected dose/organ; the “Lung, % injected dose/organ” value is 0.12 % injected dose/organ. The “Muscle, % injected dose/organ” value in series [1] (60 min p.i.) turned out to be 18.30 % injected dose/organ.
Consider `CCP(CC)CCP(CC)CC.CCP(CC)CCP(CC)CC.O=[N][99Tc+][Cl].[Cl-]` [[^99m Tc(NO(DEPE)2 Cl]^+], for which, in series [2] (2 min), the “Blood, % injected dose/organ” value is reported as 6.00 % injected dose/organ; the “Heart, % injected dose/organ” value worked out at 1.06 % injected dose/organ; the “Heart/Blood Counts/Gram ratio” value came out at 3.03; the “Heart/Liver Counts/Gram ratio” value came out at 0.73. In series [2] (2 min), the “Heart/Lung Counts/Gram ratio” value is 0.4; the “Heart/Muscle Counts/Gram ratio” value was determined as 5.94; the “Kidney + Urine, % injected dose/organ” value is 13.8 % injected dose/organ; the “Liver + GI, % injected dose/organ” value was found to be 37.3 % injected dose/organ. In series [2] (2 min), the “Liver, % injected dose/organ” value was found to be 23.63 % injected dose/organ; the “Lung, % injected dose/organ” value is 2.98 % injected dose/organ; the “Muscle, % injected dose/organ” value is 22.9 % injected dose/organ. Also, in series [2] (60 min), the “Blood, % injected dose/organ” value is recorded as 0.41 % injected dose/organ; the “Heart, % injected dose/organ” value stood at 0.92 % injected dose/organ; the “Heart/Blood Counts/Gram ratio” value is listed as 38.1; the “Heart/Liver Counts/Gram ratio” value was determined as 1.75. In addition, in series [2] (60 min), the “Heart/Lung Counts/Gram ratio” value turned out to be 0.6; the “Heart/Muscle Counts/Gram ratio” value was determined as 6.18; the “Kidney + Urine, % injected dose/organ” value was 19.3 % injected dose/organ; the “Liver + GI, % injected dose/organ” value came out at 47.0 % injected dose/organ. Besides, in series [2] (60 min), the “Liver, % injected dose/organ” value is given as 7.54 % injected dose/organ; the “Lung, % injected dose/organ” value was 1.57 % injected dose/organ; the “Muscle, % injected dose/organ” value is given as 19.1 % injected dose/organ.
Regarding `O=[N][99Tc-]([Cl])([Cl])([Cl])[Cl]` [[^99m TcNOCl4]^-], in series [1] (2 min p.i.), the “Brain, % injected dose/organ” value is given as 0.09 % injected dose/organ; the “Heart, % injected dose/organ” value is 0.55 % injected dose/organ; the “Heart/Blood Counts/Gram ratio” value is recorded as 0.41; the “Heart/Liver Counts/Gram ratio” value is listed as 1.37. In addition, in series [1] (2 min p.i.), the “Heart/Muscle Counts/Gram ratio” value came to 2.14; the “Kidney + Urine, % injected dose/organ” value stood at 6.26 % injected dose/organ; the “Liver + GI, % injected dose/organ” value is recorded as 13.49 % injected dose/organ; the “Liver, % injected dose/organ” value was 5.31 % injected dose/organ. Moreover, in series [1] (2 min p.i.), the “Lung, % injected dose/organ” value is on record as 2.09 % injected dose/organ; the “Blood, % injected dose/organ” value is recorded as 20.32 % injected dose/organ; the “Muscle, % injected dose/organ” value is 30.35 % injected dose/organ. Also, in series [1] (60 min p.i.), the “Brain, % injected dose/organ” value is on record as 0.05 % injected dose/organ; the “Heart, % injected dose/organ” value came out at 0.42 % injected dose/organ; the “Heart/Blood Counts/Gram ratio” value was found to be 0.43; the “Heart/Liver Counts/Gram ratio” value worked out at 0.98. For the same molecule, in series [1] (60 min p.i.), the “Heart/Muscle Counts/Gram ratio” value amounted to 1.66; the “Kidney + Urine, % injected dose/organ” value was 14.61 % injected dose/organ; the “Liver + GI, % injected dose/organ” value was found to be 11.89 % injected dose/organ; the “Liver, % injected dose/organ” value is 4.59 % injected dose/organ. For the same molecule, in series [1] (60 min p.i.), the “Lung, % injected dose/organ” value was determined as 1.71 % injected dose/organ; the “Blood, % injected dose/organ” value is 14.94 % injected dose/organ; the “Muscle, % injected dose/organ” value worked out at 30.41 % injected dose/organ.
